Series [1] can be described thus: Rodent pharmacokinetic study. It counts as in vivo, Male Wistar rats. The note with it: whole blood, Wistar male rat; for AUC(0-t) / Cmax / Tmax / half-life: water, blood; for bioavailability: per oral 3 mg/kg vs intravenous 1 mg/kg. As to the method: Male Wistar rats (230-280 grams) obtained from NIN (National Institute of Nutrition, Hyderabad, India) were used as an experimental animal. Three animals were housed in each cage. Animals were kept fasted over night and maintained on a 12 hours light/dark cycle. Three rats were dosed New chemical entity (NCE) orally (3 or 10 mg/kg) and intravenously (1 or 5 mg/kg) on day 0 and day 2.
At each time point blood was collected by jugular vein. Blood was stored at 2-8° C. until analysis. The concentrations of the NCE compound in blood were determined using LC-MS/MS method. Schedule time points: Pre dose 0.08, 0.25, 0.5, 1, 2, 4, 6, 8 and 24 hours after dosing (n=3). The NCE compounds were quantified in blood by partially validated LC-MS/MS method using acetonitrile precipitation technique. NCE compounds were quantified in the calibration range of 1-2000 ng/mL in blood. Study samples were analyzed using calibration samples in the batch and quality control samples spread across the batch.
Pharmacokinetic parameters were calculated by non-compartmental model using software WinNonlin version 5.0.1.

Series [2] in a line: Rodent brain penetration study. The following applies: brain / whole blood; Wistar male rat; one value per compound, table lists intravenous 1 mg/kg and per oral 3 mg/kg, water; read-out: Brain Penetration Ratio (Cb/Cp). The series is classed as in vivo, Male Wister rats. How it is done: Male Wister rats (230-280 grams) obtained from NIN (National Institute of Nutrition, Hyderabad, India) was used as experimental animals. Three animals were housed in each cage. Animals were given water and food ad libitum throughout the experiment, and maintained on a 12 hours light/dark cycle.
New chemical entity (NCE) was dissolved in suitable vehicle and administered orally (3 or 10 mg/kg). Around Tmax (i.e, 0.5 hour, 1.0 hour and 2.0 hours) animals were sacrificed. Blood and brain tissue were collected and brain was homogenized to yield 20% w/v. Blood was stored at 2-8° C. and brain homogenate was frozen at −20° C. until analysis. The concentrations of NCE in blood and brain were quantified using LC-MS/MS method.
The NCE was quantified in blood and brain homogenate by partially validated LC-MS/MS method using acetonitrile precipitation technique. NCE compounds were quantified in the calibration range of 1-500 ng/mL in blood and brain homogenate. Study samples were analyzed using calibration samples in the batch and quality control samples spread across the batch. Extents of brain-blood ratio were calculated (Cb/Cp).

The next series has as its target Histamine H3 receptor (UniProt Q9Y5N1). In words: Binding assay for human or rat histamine H3 receptor ([3H] R-α-methylhistamine). The following applies: [3H] R-α-methylhistamine 3.0 nM; rat brain frontal cortex or recombinant human receptor in CHO cells (not specified which). As to the method:
Compounds can be evaluated according to the following procedures.
• Receptor source: Rat brain frontal cortex or recombinant human cDNA expressed in CHO cells • Radioligand: [^3H] R-α-methylhistamine • Final ligand concentration—[3.0 nM] • Non-specific determinant: R-α-methylhistamine (100 uM) • Reference compound: R-α-methylhistamine • Positive control: R-α-methylhistamine Incubation Conditions:
Increasing concentrations of test compounds or standard were incubated with membrane receptors and radioligand in 5 mM MgCl2 and 50 mM TRIS-HCl (pH 7.4) for 60 minutes at room temperature. The reaction was terminated by rapid vacuum filtration onto the glass fiber filters. Radioactivity trapped onto the filters was determined and compared to the control values in order to ascertain any interactions of the test compound(s) with either cloned human or rat receptor binding site.

Series [3] deals with rats. Put plainly: Morris water maze, reversal of scopolamine induced amnesia. It counts as in vivo, rat. The following applies: p.o., dose giving reversal. How it is done:
The cognition-enhancing properties of compounds of this invention were estimated by using this model.
The water maze apparatus consisted of a circular pool (1.8 m diameter, 0.6 m high) constructed in black Perspex (TSE systems, Germany) filled with water (24±2° C.) and positioned underneath a wide-angled video camera to track animal. The 10 cm^2 perspex platform, lying 1 cm below the water surface, was placed in the centre of one of the four imaginary quadrants, which remained constant for all rats. The black Perspex used in the construction of the maze and platform offered no intramaze cues to guide escape behavior. By contrast, the training room offered several strong extramaze visual cues to aid the formation of the spatial map necessary for escape learning. An automated tracking system, [Videomot 2 (5.51), TSE systems, Germany] was employed. This program analyzes video images acquired via a digital camera and an image acquisition boards that determined path length, swim speed and the number of entries and duration of swim time spent in each quadrant of the water maze.

A further series deals with Male Wister rats. Put plainly: Object recognition task model. The series is classed as in vivo, rat. The note with it: for Exploration time mean ± S.E.M, Familiar object / Exploration time mean ± S.E.M, Novel object: choice trial T2, 24 hours after T1. As to the method:
The cognition enhancing properties of compounds of this invention were estimated by using this model.
Male Wister rats (230-280 grams) obtained from N. I. N. (National Institute of Nutrition, Hyderabad, India) was used as experimental animals. Four animals were housed in each cage. Animals were kept on 20% food deprivation before one day and given water ad libitum throughout the experiment and maintained on a 12 hours light/dark cycle. Also the rats were habituated to individual arenas for 1 hour in the absence of any objects.
One group of 12 rats received vehicle (1 mL/Kg) orally and another set of animals received compound of the formula (I) either orally or i.p., before one hour of the familiar (T1) and choice trial (T2).
The experiment was carried out in a 50×50×50 cm open field made up of acrylic. In the familiarization phase, (T1), the rats were placed individually in the open field for 3 minutes, in which two identical objects (plastic bottles, 12.5 cm height×5.5 cm diameter) covered in yellow masking tape alone (a1 and a2) were positioned in two adjacent corners, 10 cms from the walls. After 24 hours of the (T1) trial for long-term memory test, the same rats were placed in the same arena as they were placed in T1 trial. Choice phase (T2) rats were allowed to explore the open field for 3 minutes in presence of one familiar object (a3) and one novel object (b) (Amber color glass bottle, 12 cm high and 5 cm in diameter). Familiar objects presented similar textures, colors and sizes. During the T1 and T2 trial, explorations of each object (defined as sniffing, licking, chewing or having moving vibrissae whilst directing the nose towards the object at a distance of less than 1 cm) were recorded separately by stopwatch. Sitting on an object was not regarded as exploratory activity, however, it was rarely observed. • T1 is the total time spent exploring the familiar objects (a1+a2). • T2 is the total time spent exploring the familiar object and novel object (a3+b).
The object recognition test was performed as described by Ennaceur, A., Delacour, J., 1988, A new one-trial test for neurobiological studies of memory in rats—Behavioural data, Behav. Brain Res., 31, 47-59.

The subject of series [4] is rats. Put plainly: Inhibition of food intake. The series is classed as in vivo, rat. The note with it: p.o., rats fasted 18 hours. As to the method: The anti-obesity properties of compounds of this invention were estimated using this model
The experiment consisted of 6 days. The rats were adapted to the 18 hours fasting and 6 hours feeding pattern. The animals were housed in a group of three in the cages provided with the fasting grills and was fasted for 18 hours. After 18 hours fasting the rats were separated and placed individually in the cage. Weighed amount of feed was provided to rats for 6 hours and the feed intake at 1 hour, 2 hours, 4 hours and 6 hours was measured
Again the rats were regrouped and fasted for 18 hours. The above procedure was followed for 5 days. The average cumulative food intake by the rats on the last 3 days was calculated. Animals were randomized on the basis of their previous three days food intake. On the day of experiment the rats were orally treated test compounds or vehicle. After 60 minutes, the feed was provided to the rats and the food intake at 1 hour, 2 hours, 4 hours and 6 hours was measured. The food intake by the rats treated with test compound was compared with the vehicle treated group by using Unpaired Student's t test.

`CCC(=O)N1CCc2nc(OC3CCN(C4CCC4)CC3)sc2C1.O=C(O)C(O)C(O)C(=O)O` [Example 1, 1-[2-(1-Cyclobutyl-piperidin-4-yloxy)-6,7-dihydro-4H-thiazolo[5,4-c]pyridin-5-yl]-propan-1-one tartrate]: in series [1] (intravenous, 1 mg/kg), the area under the curve AUC(0-t) turned out to be 356 ± 61 ng·h/mL, the highest concentration (Cmax) stood at 436 ± 118 ng/mL, the time to peak (Tmax) was determined as 4.8 min and the half-life was 58.8 ± 7.8 min. The compound also gave a bioavailability in series [1] of 49 ± 5%. Further, in series [1] (per oral, 3 mg/kg), the area under the curve AUC(0-t) was determined as 524 ± 51 ng·h/mL, the highest level (Cmax) was 329 ± 23 ng/mL, the Tmax is 25.2 ± 8.4 min and the half-life is 57 ± 4.2 min. In series [2], the Kp worked out at 1.97 ± 0.24. At Histamine H3 receptor, the Ki came to 3.83 nM. Also, the “Reversal of Scopolamine Induced amnesia” value in the series with rats [3] was “≦10 mg/kg, p.o”. In the series with Male Wister rats (3 mg/kg p.o.), the Inference result is “Active”; the “Exploration time mean ± S.E.M, Familiar object” value turned out to be 7.8 ± 1.80 s; the “Exploration time mean ± S.E.M, Novel object” value turned out to be 23.95 ± 3.15 s.

For `O=C(C1CC1)N1CCc2nc(OC3CCN(C4CCC4)CC3)sc2C1.O=C(O)C(O)C(O)C(=O)O` [Example 4, [2-(1-Cyclobutyl-piperidin-4-yloxy)-6,7-dihydro-4H-thiazolo[5,4-c]pyridin-5-yl]-cyclopropyl-methanone tartrate], in series [1] (intravenous, 1 mg/kg), the exposure AUC(0-t) was determined as 348 ± 7 ng·h/mL, the concentration peaked (Cmax) at 320 ± 62 ng/mL, the time of peak concentration (Tmax) was determined as 4.8 min and the half-life is 75 ± 6.6 min. This compound yielded a bioavailability in series [1] of 39 ± 8%. Besides, in series [1] (per oral, 3 mg/kg), the area under the curve AUC(0-t) is 407 ± 89 ng·h/mL, the concentration peaked (Cmax) at 199 ± 48 ng/mL, the time of peak concentration (Tmax) stood at 40.2 ± 17.4 min and the half-life is 100 ± 12.6 min. The Kp in series [2] stood at 2.17 ± 0.17. Besides, at Histamine H3 receptor, the Ki came to 7.2 nM. In the series on rats [3], the “Reversal of Scopolamine Induced amnesia” value was “≦10 mg/kg, p.o”. Besides, the “Inhibition of food intake” value in the series with rats [4] is 20 mg/kg, p.o. In the series with Male Wister rats (10 mg/kg p.o.), the Inference result was “Active”; the “Exploration time mean ± S.E.M, Familiar object” value was 7.8 ± 1.36 s; the “Exploration time mean ± S.E.M, Novel object” value was 20.32 ± 2.22 s.

For `O=C(C1CCC1)N1CCc2nc(OC3CCN(C4CCC4)CC3)sc2C1.O=C(O)C(O)C(O)C(=O)O` [Example 5, Cyclobutyl-[2-(1-cyclobutyl-piperidin-4-yloxy)-6,7-dihydro-4H-thiazolo[5,4-c]pyridin-5-yl]-methanone tartrate], in series [1] (intravenous, 1 mg/kg), the exposure AUC(0-t) was 155 ± 38 ng·h/mL, the Cmax was found to be 287 ± 58 ng/mL, the time to peak (Tmax) came out at 4.8 min and the half-life was 25.8 ± 6 min. Further, in series [1], the bioavailability stood at 25 ± 1%. In series [1] (per oral, 3 mg/kg), the area under the curve AUC(0-t) came out at 117 ± 34 ng·h/mL, the Cmax is 101 ± 37 ng/mL, the time to peak (Tmax) came out at 25.2 ± 8.4 min and the half-life was 34.2 ± 6 min. The Kp in series [2] was found to be 3.08 ± 0.45. In addition, the Ki on Histamine H3 receptor came to 3.3 nM. For the same compound, the “Reversal of Scopolamine Induced amnesia” value in the series on rats [3] is “≦3 mg/kg, p.o”. Besides, in the series with Male Wister rats (3 mg/kg p.o.), the Inference result is on record as “Active”; the “Exploration time mean ± S.E.M, Familiar object” value came out at 7.15 ± 0.91 s; the “Exploration time mean ± S.E.M, Novel object” value came out at 11.44 ± 1.58 s.

With `CC(C)C(=O)N1CCc2nc(OC3CCN(C4CCC4)CC3)sc2C1.O=C(O)C(O)C(O)C(=O)O` [Example 22, 1-[2-(1-Cyclobutyl-piperidin-4-yloxy)-6,7-dihydro-4H-thiazolo[5,4-c]pyridin-5-yl]-2-methyl-propan-1-one tartrate], in series [1] (intravenous, 1 mg/kg), the AUC(0-t) is 110 ± 15 ng·h/mL, the peak concentration (Cmax) worked out at 205 ± 47 ng/mL, the Tmax was 4.8 min and the half-life was 30 ± 3 min. Also, the bioavailability in series [1] was found to be 65 ± 24%. Besides, in series [1] (per oral, 3 mg/kg), the AUC(0-t) amounted to 206 ± 56 ng·h/mL, the peak level (Cmax) was 189 ± 56 ng/mL, the time to peak (Tmax) came to 25.2 ± 8.4 min and the half-life was 32.4 ± 6.6 min. Besides, in series [2], the Kp was 2.1 ± 0.13. Also, the Ki at Histamine H3 receptor amounted to 9.5 nM.

As for `O=C(C1CCOCC1)N1CCc2nc(OC3CCN(C4CCC4)CC3)sc2C1` [Example 28, [2-(1-Cyclobutyl-piperidin-4-yloxy)-6,7-dihydro-4H-thiazolo[5,4-c]pyridin-5-yl]-(tetrahydro-pyran-4-yl)-methanone], in series [1] (intravenous, 1 mg/kg), the AUC(0-t) was 282 ± 23 ng·h/mL, the highest level (Cmax) was 370 ± 25 ng/mL, the Tmax was found to be 4.8 min and the half-life is 40.2 ± 3.6 min. Besides, the bioavailability in series [1] stood at 82 ± 38%. For the same compound, in series [1] (per oral, 3 mg/kg), the AUC(0-t) amounted to 701 ± 328 ng·h/mL, the peak level (Cmax) was 286 ± 40 ng/mL, the Tmax was 49.8 ± 17.4 min and the half-life was 57 ± 16.8 min. In addition, on Histamine H3 receptor, the Ki is 39 nM. For the same compound, the “Reversal of Scopolamine Induced amnesia” value in the series with rats [3] is “≧10 mg/kg, p.o”. Moreover, in the series on Male Wister rats (0.3 mg/kg p.o.), the Inference entry is listed as “Active”; the “Exploration time mean ± S.E.M, Familiar object” value turned out to be 6.12 ± 1.22 s; the “Exploration time mean ± S.E.M, Novel object” value amounted to 11.44 ± 1.69 s.

Values taken from US8912179B2, “Heterocyclyl compounds as histamine H3 receptor ligands” (Suven Life Sciences Limited, priority 2010, dated 2014).
